According to patent US20060193931A1, “Nutritional or therapeutic composition containing the compound oleuropeine or one of the derivatives thereof” (priority 2003, published 2006):

Key:
Assay type in all cases: in vivo, rat (Wistar)
[1] = system: ovariectomized female rats, suffering from inflammation (OVX inf); experiment: Inflammation markers (plasma orosomucoid, spleen weight) in ovariectomized female rats with talc-induced inflammation; settings: OVX inf female Wistar rats; diet for 72 days; sacrifice D80; mean ± SEM
Protocol: (§1) The experiment was conducted on 40 female rats Wistar aged 6 months, amongst which thirty were ovariectomized (OVX) and 10 pseudo-operated (SH). Animals were placed in metabolic cages enabling to separately collect the urines at a controlled temperature of 21±1° C., according to a 12 h-12 h nyctohemeral cycle. Following the surgical operation at Day0, animals were accustomed for seven days to a basic semisynthetic diet (INRA, Jouy-en-Josas, France), supplemented with 2.5% groundnut oil and 2.5% rapeseed oil and humidified to 1 ml water per gram powder. At the end of this adaptation period, the rats were separated in four homogeneous batches according to weight parameters and were fed for 72 days 22 g per day of following diets: • Batch SH/10 pseudo-operated female rats fed control diet (basic diet supplemented with 2.5% groundnut oil and 2.5% rapeseed oil), • Batch OVXinf: 10 ovariectomized female rats fed control diet, • Batch OL: 10 ovariectomized female rats fed control diet supplemented with 0.015% oleuropein. • Batch HO: 10 ovariectomized female rats fed basic diet supplemented with 5% extra-virgin olive oil.
(§2) Oil storage was kept away from light. Feed was prepared once a week and stored at +4° C.
(§3) At D55, that is 3 weeks before the end of the experiment, an inflammation was induced in each batch, except in control batch (SH). […]

[2] = system: ovariectomized female rats, suffering from inflammation (OVX inf); experiment: Body weight and uterine weight in ovariectomized female rats with talc-induced inflammation (senile osteoporosis model); settings: OVX inf female Wistar rats
Protocol: as §1, §2, §3

[3] = system: ovariectomized female rats, suffering from inflammation (OVX inf); experiment: Femur bone mineral density in ovariectomized female rats with talc-induced inflammation; settings: OVX inf female Wistar rats
Protocol: as §1, §2
At D55, that is 3 weeks before the end of the experiment, an inflammation was induced in each batch, except in control batch (SH). Four talc subcutaneous injections (3.2 g magnesium silicate (Sigma) suspended in […] physiological saline) were administrated in 4 distinct sites of the animal back.
The day of sacrifice (D80), animals were anesthetized with a chloral intraperitoneal injection (Fluka/8% solution, 0.4 ml/100 g of live weight). Blood samples were collected at abdominal aorta for dosing orosomucoid (inflammation marker, in particular of the acute phase for humans and rats (Fournier and al. 2000), that is produced by lever and other extra-hepatic sites under the control of II1, TNFα and II6 cytokines).
Femurs were collected and removed from adjacent soft tissues, then kept in 80% ethanol for bone density determination.

[4] = diet with 0.015% oleuropein or 5% extra-virgin olive oil for 72 days, sacrifice D80, mean ± SEM
[5] = femur, oleuropein diet for 72 days

C/C=C1/[C@H](O[C@@H]2O[C@H](CO)[C@@H](O)[C@H](O)[C@H]2O)OC=C(C(=O)OC)[C@H]1CC(=O)OCCc1ccc(O)c(O)c1 [oleuropein]
spleen weight [1]: 0.201±0.011 g spleen/100 g body weight | uterotrophic effect ([2]; diet for 72 days, judged from uterine weight): free from any uterotrophic effect | uterine weight [2, 4]: 0.034±0.001 g uterus/100 g body weight | total bone mineral density (femur) [3, 4]: 0.2258±0.0028 g/cm^2 | bone cortical substance density [3, 5]: increase | bone trabecular substance density [3, 5]: increase
